One test addresses T1, β-secretase (Mus musculus, UniProt P56818).
T1 construct: host or cells: brain of APP transgenic mice (in vivo, oral dosing)
To be noted: oral administration, APP transgenic mice; cited from earlier work.

For another test, the system named is APP695. The test is described as follows: Western blot (antibody 6E10) of fibroblasts grown with protease inhibitors. Type of test: cell-based, Göttingen minipig. On the procedure:
A Western blot using a commercial anti-APP antibody (6E10), […], was performed according to the manufacturer's recommendations. The Western blot was performed on extracts from fibroblast cells of a transgenic pig (lanes 1 and 2) and on extracts from fibroblast cells of a wt pig (lanes 3 and 4), see FIG. 10. In lane 1 the fibroblasts have been treated with the protease inhibitor ALLN, whereas the fibroblasts of lane 2 have not received treatment. […] In contrast, the lower molecular weight products are not present in similar amounts as in lane 2. Lanes 3 and 4 contain extracts of fibroblasts from wt pigs and no effect of ALLN treatment is evident in comparison to the extracts of transgenic pigs.
a) Non-transgenic donor fibroblasts (74114 cells) and fibroblasts from transgenic minipiglet No. 47 were grown to 80% confluence in a 75 cm2 flask. The cells from each flask were resuspended in 24 ml medium and transferred to a 6-well plate (TPP, Schwitzerland) with 2.5 ml of the cell suspension in each well. Medium was changed the following day with 2 ml fresh medium containing the chemical at the indicated concentration were added to the wells of both plates: well No. 1, 5 μM Lactacystin; well No. 2, 20 μM Leupeptin; well No. 3, 20 μl DMSO; well No. 4, 20 μM ALLN; well No. 5, 2.5 mM NH4Cl. After 6 hrs incubation the cells from each well were harvested and transferred to an 1.5 ml Eppendorf tube. 30 μl ddH20, 2 μl reducing agent and 8 μl loading buffer (Fermentas) were added, the tubes were placed in boiling water for 5 min. and spun at full speed for 1 min. in an Eppendorf centrifuge. 15 μl of each sample were loaded on a 4-15% polyacrylamid gel (BioRad), run at 45 mAmp for 90 min. Transfer to PVDF membrane (GE Healthcare) was done at 75 volt for 30 min., and the membrane was stained with anti-human APP monoclonal antibody 6E10 (SIGNET) at dilution 1:1000, and as secondary antibody polyclonal goat anti-mouse immunoglobulines/HRP (Dako Cytomation) at dilution 1:2000. b) Extraction of protein from brain tissue was done with 100-200 mg flash frozen cortical tissue homogenized in a tissue-grinder with 3 ml lysis buffer (Tris-HCl 50 mM, EDTA 10 mM, SDS 1%, Triton X-100 0.5%, ⅓ Protease Inhibitor Cocktail Tablet (Roche), pH 8.0). The solution was transferred to an Eppendorf tube (1 ml), centrifuged at 12,000 rpm for 2 min at 4° C. and supernatant transferred to a new tube. After vortexing the tube was frozen in dry ice for 3 min, thawed at 37° C. for 3 min, and this freeze/thaw step was repeated 3 times. Finally, the solution was centrifuged at 14,000 rpm (4° C.) for 10 min, the pellet discarded and the protein concentration of the supernatant determined. 8 μg protein extract was loaded in each lane of the polyacrylamid gel. Western blotting was done as described above. […]
In general terms: Immunoblotting shows a protein as a band on a membrane.

The test system of another test is PDAPP transgenic mouse. As to conditions: subcutaneous immunization, 100 ug in complete Freund adjuvant; cited from earlier work.

Where a SMILES comes first, the peptide text is derived from it. [ ]: non-standard residue; d: D form. Nle = CCCC[C@H](N)C(=O)O

T1 sequence (P56818 46-501): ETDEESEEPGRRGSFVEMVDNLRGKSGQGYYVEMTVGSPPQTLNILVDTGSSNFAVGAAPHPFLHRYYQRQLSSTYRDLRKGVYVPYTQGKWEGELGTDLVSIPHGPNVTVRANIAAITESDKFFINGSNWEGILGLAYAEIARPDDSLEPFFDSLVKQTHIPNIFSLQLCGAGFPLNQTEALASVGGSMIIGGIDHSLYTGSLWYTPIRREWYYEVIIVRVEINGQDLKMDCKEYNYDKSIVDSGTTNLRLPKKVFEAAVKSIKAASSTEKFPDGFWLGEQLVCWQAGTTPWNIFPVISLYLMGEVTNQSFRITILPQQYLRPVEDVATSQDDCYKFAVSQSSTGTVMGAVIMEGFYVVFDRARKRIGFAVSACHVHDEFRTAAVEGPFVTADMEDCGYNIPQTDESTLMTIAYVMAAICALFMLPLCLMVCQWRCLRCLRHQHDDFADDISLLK

Take `CCNc1cc(C(=O)N[C@@H](Cc2ccccc2)[C@H](O)CNCc2cccc(C(F)(F)F)c2)c(F)c(N2CCCCS2(=O)=O)c1` [GSK188909]: the “brain Abeta” value on β-secretase was “significant lowering”.

Take `CCCC[C@@H](C=O)NC(=O)[C@H](CC(C)C)NC(=O)[C@H](CC(C)C)NC(C)=O` [ALLN] (Ac-Leu-Leu-[Nle]-aldehyde): in the test on APP695 (20 μM ALLN in medium, fibroblasts of transgenic piglet No. 47 vs donor cells 74114), the “difference in intensity of the APP695 bands, transgenic vs non-transgenic fibroblasts” value (from here on “difference … vs non-transgenic fibroblasts”) is recorded as “becomes more pronounced”. Also, the “bands of lower molecular weight than mutated APP” value in the test on APP695 (ALLN treated fibroblasts of transgenic pig vs untreated) is “increased in intensity”. `CC(=O)N[C@@H](CC(C)C)C(=O)N[C@@H](CC(C)C)C(=O)N[C@H](C=O)CCCNC(=N)N` [leupeptin]: in the test on APP695 (leupeptin in medium (20 μM per method), data not shown), the “difference … vs non-transgenic fibroblasts” value is listed as “no such effect”.

Turning to `Cl.N` [ammonium chloride], the “difference … vs non-transgenic fibroblasts” value with APP695 (ammonium chloride in medium (2.5 mM NH4Cl per method), data not shown) is “no such effect”. For “Abeta 1-42 antigen: Abeta 1-42 antigen in complete Freund adjuvant for active immunization”, the “accumulation of plaques in the brain” value in the test with PDAPP transgenic mouse is on record as “reduces the accumulation of plaques”.

Values taken from patent US8389794B2, “Transgenic pig as a model of Alzheimer's disease” (Aarhus Universitet, priority 2007, dated 2013).
